Results from the Biogen ADME set (Fang et al. 2023).
Values after ≈ are worked out from the molar mass of the structure shown.

Conditions: for aqueous solubility: pH 6.8

Compound	MDR1-MDCK efflux ratio	intrinsic clearance, human liver microsomes [mL/min/kg]	intrinsic clearance, rat liver microsomes [mL/min/kg]	aqueous solubility [µg/mL]	fraction unbound, human plasma	fraction unbound, rat plasma
CC(C)c1ccc2c(c1)[C@H](NC(=O)Cn1ccnn1)CCC2	3.4	88.8	297	12.6 (≈ 42.1 µM)		
Cn1ccnc1CNc1cc(Br)ccc1-n1cccn1	0.841	31.6	291	48.6 (≈ 146 µM)		
Cc1nc(CN2C[C@@H](c3ccc4c(c3)OCO4)[C@@H]3[C@H]2C2CCN3CC2)co1	53.4	96.7	205	48.3 (≈ 131 µM)		
Cc1cc(Nc2nnc(C)s2)cc(C2CN(C(=O)Cc3csc(C)n3)CCO2)n1 (centres undefined)	35.5	18.7	103			
COc1cc2cc3c(nc2cc1OC)OCCN(C1CCCCC1)C3	1.3	33.2	1680			
O=C(CC1CCN(c2ncc(Cl)cn2)CC1)N1CCOCC1	0.764	≤ 4.74	46.9	51.2 (≈ 158 µM)		
Cc1cc(-c2nncc3c(C(C)(C)C)c(OCc4ncnn4C)nn23)no1	8.04	≤ 4.74	83.6			
COc1ccc(Cc2noc(-c3cccc4c3OCC(=O)N4)n2)cc1		18.6	148			
CCN1CCc2nc(NC(=O)Cc3ccc(Cl)cc3)sc2C1	1.02	11.6	≤ 10.7	46.6 (≈ 139 µM)		
CS(=O)(=O)c1ccc(-c2cnc(NCc3ccco3)n3cnnc23)cc1	14.8	15.7	31.2	36.4 (≈ 98.5 µM)		
Cn1cc(CCNc2cncc(Br)c2)cn1	0.655	12	110	40.4 (≈ 144 µM)		
COc1ccc2c(c1)CN(c1nc(C)cc(C)n1)CC2		129	484	10.1 (≈ 37.5 µM)		
Cn1c2cc(S(C)=O)sc2c2cnn(Cc3cccc(N)c3)c(=O)c21 (centres undefined)		4.92	49.6			
Cc1nccc(NC(=O)CCc2ccncc2)c1Cl	0.826	≤ 4.74	73.1			
CC(=O)N1CCN(c2nc(C(F)(F)F)nc3sc(C)c(C)c23)CC1	1.22	43	217	51.3 (≈ 143 µM)	0.0136	0.0421
Clc1ccc2c(NCCN3CCOCC3)ncnc2c1	1.37	11.7	213			
CC(C)NC(=O)Cn1nnnc1C(C)(C)C	1.25	≤ 4.74	27.1	23.3 (≈ 103 µM)		
COc1cc2c(c(OC)c1OC)CCNC(=O)C2		≤ 4.74	≤ 10.7	49.6 (≈ 198 µM)		
CC(C)N(CCCNC(=O)Nc1ccc(C(C)(C)C)cc1)C[C@@H]1O[C@@H](n2cc(Br)c3c(N)ncnc32)[C@H](O)[C@H]1O	17	354	2010			
CCc1nc(CC)n(Cc2nc(C)cs2)n1	0.797	≤ 4.74	39.8	35.9 (≈ 152 µM)		
CCCC(=O)Nc1cnc(N2CCN(C)CC2)nc1	1.39	≤ 4.74	34.4	35.3 (≈ 134 µM)		
Nc1cnc(Cc2ccc(F)cc2)nc1	0.67	≤ 4.74	15.4	38.2 (≈ 188 µM)		
CS(=O)(=O)NCCN1CCc2c(Cl)cc(Cl)cc2C1	0.707	14.3	400			
CN(CC(=O)NC1CC1)C(=O)C1C2CC3CC(C2)CC1C3 (centres undefined)	1.58	21.7	463	50.8 (≈ 175 µM)		
Cc1ccc(Cn2ccn(-c3ccc(F)c(F)c3)c(=O)c2=O)cc1	0.671			0.35 (≈ 1.07 µM)		
CCSCCC(=O)NCCn1nc(C)c(CC)c1C	2.49	146	1540			

Further lines, results first:

MDR1-MDCK efflux ratio	intrinsic clearance, human liver microsomes [mL/min/kg]	intrinsic clearance, rat liver microsomes [mL/min/kg]	aqueous solubility [µg/mL]	fraction unbound, human plasma	fraction unbound, rat plasma	Compound
11.8	≤ 4.74	57.3				CNC(=O)Cc1cccc(OCCN2CCCCC2)c1
106	40.7	643	57.8 (≈ 128 µM)	0.0395	0.0355	CC(=O)Nc1ccc(C(=O)N2CCCCC2c2nc(N)ncc2-c2ccc(Cl)cc2)cc1 (centres undefined)
0.669	18.2	644	45.9 (≈ 159 µM)			COc1ccc(CN(C)C(=O)Nc2ccccc2)cc1F
1.54	≤ 4.74	823	43 (≈ 132 µM)			Cc1nc(CN2C(=O)CN(C3CCCC3)C2=O)nc2ccccc12
1.46	997	2710		0.00787	0.0139	CN(C)C(=O)C1(Cc2ccccc2-c2cccc(F)c2)CCN(C(=O)C2CC=CCC2)CC1 (centres undefined)
45	14.2	131	61.7 (≈ 138 µM)			COc1cc(N2CCN(C)CC2)ccc1Nc1ncc2c(n1)N(C)c1ccccc1C(=O)N2
15.1	183	2180	56.5 (≈ 144 µM)			CC(C(=O)Nc1ccc(C(N)=O)cc1)N1CCCC(c2nc3ccccc3o2)C1 (centres undefined)
39.2	26.1	634				CCNc1ccnc(-c2cccc(C(=O)NCCCc3cnn(C)c3)c2)n1
	29.3	362	80.8 (≈ 237 µM)			CN1C(=O)CCc2cc(NC(=O)C(C)(C)c3ccccc3F)ccc21
			16 (≈ 51.2 µM)			CN(Cc1cnccn1)C(=O)c1cc(-c2ccc(F)cc2)on1
7.52			0.4 (≈ 0.865 µM)			CC(C)(C)Nc1cc(NCC2CCOCC2)c2ncc(-c3ccc(C(=O)NC4CC4)cc3)n2n1
33.3	≤ 4.74	495				c1ccc2nc(N3CCCC4(CCNCC4)CC3)cnc2c1
61.5	4.83	74.7	43.4 (≈ 124 µM)			CCc1nnc2n1CCN(C(=O)c1ccccc1Oc1cccnc1)C2
1.42	49.8	201	22.9 (≈ 53.3 µM)			COc1ccc2c(c1)C=C(CN1CCC(c3cc(-c4cncnc4)cc(C)n3)CC1)CO2
	≤ 4.74	201				O=C(c1cc(F)ccc1O)N1CCN(C2CCOCC2)CC1
4.42	≤ 4.74	23.3	61.7 (≈ 154 µM)			O=C(c1ccc(F)c(F)c1)N1CCN(C(=O)c2nc(Cl)ccc2Cl)CC1
	≤ 4.74	149	47.5 (≈ 174 µM)			O=C(NCCc1ccc(O)c(O)c1)Nc1ccccn1
19.7	≤ 4.74	≤ 10.7	47.8 (≈ 153 µM)			Cc1cc(F)ccc1CC(=O)N[C@@H]1CCOC[C@H]1OCCO
8.75	≤ 4.74	19				O=C(NCc1nc(-c2cnccn2)n[nH]1)C1Cc2ccccc2C1
0.497			0.21 (≈ 0.731 µM)			O=C(Nc1nc(-c2cccnc2)cs1)C1CCCCC1
	41.7	164				Cc1ccc(C)c(NC(=O)c2cccc(-c3ncon3)c2)c1
0.624	15.4	48.8	1.41 (≈ 4.18 µM)			Cc1sc(-c2ccccn2)nc1-c1ccc(NC(=O)C(C)C)cc1
0.73	89.2	2390				Cc1nc(-c2ccccc2)c(C(=O)Nc2ccc(Cl)c(Cl)c2)s1
38.2	92	279	59.1 (≈ 136 µM)			CN(C)CCN(Cc1ccccc1)C(=O)CCC(=O)Nc1ncc(-c2ccccc2)n1C
2.06	6.12	211	44.3 (≈ 137 µM)			Cc1ccccc1CC(=O)N1CCN(C(=O)c2ccccc2)CC1
3.43	≤ 4.74	≤ 10.7	42.6 (≈ 152 µM)			Cc1nc(CNC2CCN(C(=O)C3CC3)CC2)cs1
1.43	≤ 4.74	103	54 (≈ 179 µM)			Cc1ccc(NC(=O)CN(C)C(=O)c2ccccc2F)nc1
			0.4 (≈ 0.948 µM)			O=C(CNC(=O)c1ccc(Cl)cc1)Nc1nc(-c2ccc3ccccc3c2)cs1
	72.7	349	54.4 (≈ 133 µM)			O=C(CN1CCSC1=O)N1CCN(Cc2sc3ccccc3c2Cl)CC1
	≤ 4.74	≤ 10.7				CN(C(=O)c1cccc(C(=O)O)c1)c1ccccc1
